Measurements published in patent US9802918B2, “Pyridineamine compounds useful as Pim kinase inhibitors” (Incyte Corporation, priority 2015, dated 2017).

How the values were obtained:
Assay type in all cases: biochemical
[1] = target: Pim-1 (Homo sapiens (Human), UniProt P11309); test: Pim-1 kinase assay; settings: 1 mM ATP; read-out: Pim1 IC50
Experimental: Supplementation of the STOP buffer with beads and stopping the reactions were done under reduced light. Prior to the stopping reactions STOP buffer with beads was preincubated for 1 h in the dark at room temperature. After stopping the reactions, plates were incubated for 1 h in the dark at room temperature before reading on a PHERAstar FS plate reader (BMG Labtech) under reduced light.

[2] = target: Pim-2 (Homo sapiens (Human), UniProt Q9P1W9); test: Pim-2 kinase assay; settings: 1 mM ATP; read-out: Pim2 IC50
Pim-2, sequence (Q9P1W9 whole entry): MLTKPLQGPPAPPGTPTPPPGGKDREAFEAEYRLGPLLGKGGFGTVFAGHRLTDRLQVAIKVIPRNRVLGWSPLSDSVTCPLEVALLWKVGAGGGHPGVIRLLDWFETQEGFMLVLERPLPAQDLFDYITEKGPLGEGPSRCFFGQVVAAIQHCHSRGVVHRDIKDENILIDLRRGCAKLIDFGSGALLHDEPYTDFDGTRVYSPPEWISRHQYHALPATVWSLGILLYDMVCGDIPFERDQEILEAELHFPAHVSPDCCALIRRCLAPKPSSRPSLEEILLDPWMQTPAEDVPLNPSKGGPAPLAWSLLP
Experimental: Pim-2 kinase assay—20 μL reactions were run in white 384 well polystyrene plates dotted with 0.8 μL compound/DMSO in the assay buffer (50 mM Tris, pH 7.5, 0.01% Tween-20, 5 mM mgCl2, 0.01% BSA, 5 mM DTT), containing […] Fluorescein-labeled CREBtide peptide substrate (Invitrogen PV3508), 1 mM ATP, and 1 nM enzyme (Invitrogen PV3649) for 2 h at 25° C. Reactions were stopped by addition of 10 μL TR-FRET Dilution Buffer (Invitrogen PV3574) with 30 mM EDTA and 1.5 nM LanthaScreen Tb-CREB pSer133 antibody (Invitrogen PV3566). After 30 min. incubation at room temperature, plates were read on a PHERAstar FS plate reader (BMG Labtech).

[3] = target: Pim-3 (Homo sapiens (Human), UniProt Q86V86); test: Pim-3 kinase assay; settings: 1 mM ATP; read-out: Pim3 IC50
Experimental: Pim-1 and Pim-3 kinase assays-20 μL reactions were run in white 384 well polystyrene plates dotted with 0.8 μL compound/DMSO in the assay buffer (50 mM Tris, pH 7.5, 0.01% Tween-20, 5 mM mgCl2, 0.01% BSA, 5 mM DTT), containing […] Biotin-labeled BAD peptide substrate (AnaSpec 62269), 1 mM ATP, and 2.5 pM (Pim-1, Invitrogen PV3503) or 1.25 pM (Pim-3, Millipore 14-738) enzyme for 1 h at 25° C. Reactions were stopped by addition of 10 μL STOP Buffer (150 mM Tris, pH=7.5, 150 mM NaCl, 75 mM EDTA, 0.01% Tween-20, 0.3% BSA,) supplemented with Phospho-Bad (Ser112) Antibody (Cell Signaling 9291) diluted 666-fold, and Streptavidin donor beads (PerkinElmer 6760002) along with Protein-A acceptor beads (PerkinElmer 6760137) at 15 μg/mL each. Supplementation of the STOP buffer with beads and stopping the reactions were done under reduced light. Prior to the stopping reactions STOP buffer with beads was preincubated for 1 h in the dark at room temperature. After stopping the reactions, plates were incubated for 1 h in the dark at room temperature before reading on a PHERAstar FS plate reader (BMG Labtech) under reduced light.

Pim-1, sequence (P11309 whole entry): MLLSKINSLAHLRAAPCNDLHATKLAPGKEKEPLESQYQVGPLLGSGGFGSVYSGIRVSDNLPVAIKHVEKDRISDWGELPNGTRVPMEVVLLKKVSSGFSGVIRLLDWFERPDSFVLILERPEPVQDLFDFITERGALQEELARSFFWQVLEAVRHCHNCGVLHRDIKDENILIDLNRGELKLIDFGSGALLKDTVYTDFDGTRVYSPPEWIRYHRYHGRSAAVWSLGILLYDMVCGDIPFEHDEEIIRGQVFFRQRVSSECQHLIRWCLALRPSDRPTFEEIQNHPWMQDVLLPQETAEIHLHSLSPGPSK

C[C@@H]1C[C@H](N)CN(c2ccncc2NCc2ccc(F)c(-c3c(F)cccc3F)n2)C1 [Example 19, 4-[(3S,5R)-3-Amino-5-methylpiperidin-1-yl]-N-{[6-(2,6-difluorophenyl)-5-fluoropyridin-2-yl]methyl}pyridin-3-amine]
IC50 [1]: < 10 nM
IC50 [2]: ≤ 100 nM
IC50 [3]: ≤ 10 nM

COc1cccc(F)c1-c1nc(CNc2cnccc2N2C[C@H](C)C[C@H](N)C2)ccc1F [Example 20, 4-((3S,5R)-3-Amino-5-methylpiperidin-1-yl)-N-((5-fluoro-6-(2-fluoro-6-methoxyphenyl)pyridin-2-yl)methyl)pyridin-3-amine]
IC50 [1]: < 10 nM
IC50 [2]: 1000 to 10000 nM
IC50 [3]: 10 to 50 nM

C[C@@H]1C[C@H](N)CN(c2ccncc2NCc2ccc(F)c(-c3c(F)cncc3F)n2)C1 [Example 21, 4-((3S,5R)-3-Amino-5-methylpiperidin-1-yl)-N-((3,3′,5′-trifluoro-2,4′-bipyridin-6-yl)methyl)pyridin-3-amine]
IC50 [1]: < 10 nM
IC50 [2]: 100 to 1000 nM
IC50 [3]: ≤ 10 nM

C[C@@H]1C[C@H](N)CN(c2ccncc2NCc2ccc(F)c(-c3c(F)cccc3C#N)n2)C1 [Example 22, 2-(6-((4-((3S,5R)-3-Amino-5-methylpiperidin-1-yl)pyridin-3-ylamino)methyl)-3-fluoropyridin-2-yl)-3-fluorobenzonitrile]
IC50 [1]: < 10 nM
IC50 [2]: 100 to 1000 nM
IC50 [3]: ≤ 10 nM

C[C@@H]1C[C@H](N)CN(c2ccncc2NCc2ccc(F)c(-c3ccccc3F)n2)C1 [Example 23, 4-((3S,5R)-3-Amino-5-methylpiperidin-1-yl)-N-((5-fluoro-6-(2-fluorophenyl)pyridin-2-yl)methyl)pyridin-3-amine]
IC50 [1]: < 10 nM
IC50 [2]: 100 to 1000 nM
IC50 [3]: ≤ 10 nM

C[C@H]1CN(c2ccncc2NCc2ccc(F)c(-c3c(F)cc(C(C)(C)C#N)cc3F)n2)C[C@@H](N)[C@@H]1O [Example 24, 2-(4-{6-[({4-[(3R,4R,5S)-3-Amino-4-hydroxy-5-methylpiperidin-1-yl]pyridin-3-yl}amino)methyl]-3-fluoropyridin-2-yl}-3,5-difluorophenyl)-2-methylpropanenitrile]
IC50 [1]: < 10 nM
IC50 [2]: ≤ 100 nM
IC50 [3]: ≤ 10 nM

C[C@@H]1C[C@H](N)CN(c2ccncc2NCc2ccc(F)c(-c3c(F)cc(C(C)(C)C#N)cc3F)n2)C1 [Example 24A, 2-(4-{6-[({4-[(3S,5R)-3-Amino-5-methylpiperidin-1-yl]pyridin-3-yl}amino)methyl]-3-fluoropyridin-2-yl}-3,5-difluorophenyl)-2-methylpropanenitrile]
IC50 [1]: < 10 nM
IC50 [2]: ≤ 100 nM
IC50 [3]: ≤ 10 nM

C[C@H]1CN(c2ccncc2NCc2ccc(F)c(-c3c(F)cccc3F)c2)C[C@@H](N)[C@@H]1O [Example 24B, (3R,4R,5S)-3-Amino-5-methyl-1-(3-{[(2′,6,6′-trifluorobiphenyl-3-yl)methyl]amino}pyridin-4-yl)piperidin-4-ol]
IC50 [1]: < 10 nM
IC50 [2]: 100 to 1000 nM
IC50 [3]: ≤ 10 nM

C[C@@H]1C[C@H](N)CN(c2ccncc2NCc2ccc(F)c(-c3c(F)cccc3F)c2)C1 [Example 25, 4-[(3S,5R)-3-Amino-5-methylpiperidin-1-yl]-N-[(2′,6,6′-trifluorobiphenyl-3-yl)methyl]pyridin-3-amine]
IC50 [1]: < 10 nM
IC50 [2]: 100 to 1000 nM
IC50 [3]: ≤ 10 nM

C[C@@H]1C[C@H](N)CN(c2ccncc2NCc2ccc(F)c(-c3c(F)cc(C4(O)CCC4)cc3F)c2)C1 [Example 26, 1-(5′-((4-((3S,5R)-3-Amino-5-methylpiperidin-1-yl)pyridin-3-ylamino)methyl)-2,2′,6-trifluorobiphenyl-4-yl)cyclobutanol]
IC50 [1]: < 10 nM
IC50 [2]: 100 to 1000 nM
IC50 [3]: ≤ 10 nM

C[C@@H]1C[C@H](N)CN(c2ccncc2NCc2ccc(F)c(-c3c(F)cc(C4(O)CCOCC4)cc3F)c2)C1 [Example 27, 4-(5′-((4-((3S,5R)-3-Amino-5-methylpiperidin-1-yl)pyridin-3-ylamino)methyl)-2,2′,6-trifluorobiphenyl-4-yl)tetrahydro-2H-pyran-4-ol]
IC50 [1]: < 10 nM
IC50 [2]: 100 to 1000 nM
IC50 [3]: ≤ 10 nM

C[C@H]1CN(c2ccncc2NCc2cccc(-c3c(F)cccc3F)n2)C[C@@H](N)[C@@H]1O [Example 28, (3R,4R,5S)-3-Amino-1-[3-({[6-(2,6-difluorophenyl)pyridin-2-yl]methyl}amino)pyridin-4-yl]-5-methylpiperidin-4-ol]
IC50 [1]: < 10 nM
IC50 [2]: 100 to 1000 nM
IC50 [3]: ≤ 10 nM

C[C@@H]1C[C@H](N)CN(c2ccncc2NCc2cccc(-c3c(F)cccc3F)n2)C1 [Example 29, 4-[(3S,5R)-3-Amino-5-methylpiperidin-1-yl]-N-{[6-(2,6-difluorophenyl)pyridin-2-yl]methyl}pyridin-3-amine]
IC50 [1]: < 10 nM
IC50 [2]: 100 to 1000 nM
IC50 [3]: ≤ 10 nM

C[C@H]1CN(c2ccncc2NCc2ccnc(-c3c(F)cccc3F)n2)C[C@@H](N)[C@@H]1O [Example 30, (3R,4R,5S)-3-Amino-1-[3-({[2-(2,6-difluorophenyl)pyrimidin-4-yl]methyl}amino)pyridin-4-yl]-5-methylpiperidin-4-ol]
IC50 [1]: 10 to 50 nM
IC50 [2]: 1000 to 10000 nM
IC50 [3]: 10 to 50 nM

C[C@@H]1C[C@H](N)CN(c2ccncc2NCc2ccnc(-c3c(F)cccc3F)n2)C1 [Example 31, 4-[(3S,5R)-3-Amino-5-methylpiperidin-1-yl]-N-{[2-(2,6-difluorophenyl)pyrimidin-4-yl]methyl}pyridin-3-amine]
IC50 [1]: < 10 nM
IC50 [2]: 1000 to 10000 nM
IC50 [3]: 10 to 50 nM

C[C@H]1CN(c2ccncc2NCc2ccc(F)c(-c3c(F)cc(N4CCOCC4)cc3F)n2)C[C@@H](N)[C@@H]1O [Example 32, (3R,4R,5S)-3-Amino-1-(3-(((6-(2,6-difluoro-4-morpholinophenyl)-5-fluoropyridin-2-yl)methyl)amino)pyridin-4-yl)-5-methylpiperidin-4-ol]
IC50 [1]: < 10 nM
IC50 [2]: ≤ 100 nM
IC50 [3]: ≤ 10 nM

C[C@@H]1C[C@H](N)CN(c2ccncc2NCc2ccc(F)c(-c3c(F)cc(N4CCOCC4)cc3F)n2)C1 [Example 33, 4-((3S,5R)-3-Amino-5-methylpiperidin-1-yl)-N-((6-(2,6-difluoro-4-morpholinophenyl)-5-fluoropyridin-2-yl)methyl)pyridin-3-amine]
IC50 [1]: < 10 nM
IC50 [2]: ≤ 100 nM
IC50 [3]: ≤ 10 nM

C[C@H]1CN(c2ccncc2NCc2ccc(F)c(-c3c(F)cc(CO)cc3F)n2)C[C@@H](N)[C@@H]1O [Example 35, (3R,4R,5S)-3-Amino-1-{3-[({6-[2,6-difluoro-4-(hydroxymethyl)phenyl]-5-fluoropyridin-2-yl}methyl)amino]pyridin-4-yl}-5-methylpiperidin-4-ol]
IC50 [1]: < 10 nM
IC50 [2]: ≤ 100 nM
IC50 [3]: ≤ 10 nM

C[C@@H]1C[C@H](N)CN(c2ccncc2NCc2ccc(F)c(-c3c(F)cc(CO)cc3F)n2)C1 [Example 36, (4-{6-[({4-[(3S,5R)-3-Amino-5-methylpiperidin-1-yl]pyridin-3-yl}amino)methyl]-3-fluoropyridin-2-yl}-3,5-difluorophenyl)methanol]
IC50 [1]: < 10 nM
IC50 [2]: ≤ 100 nM
IC50 [3]: ≤ 10 nM

C[C@H]1CN(c2ccncc2NCc2ccc(F)c(-c3c(F)cc4ncccc4c3F)n2)C[C@@H](N)[C@@H]1O [Example 37, (3R,4R,5S)-3-Amino-1-[3-({[6-(5,7-difluoroquinolin-6-yl)-5-fluoropyridin-2-yl]methyl}amino)pyridin-4-yl]-5-methylpiperidin-4-ol]
IC50 [1]: < 10 nM
IC50 [2]: 100 to 1000 nM
IC50 [3]: ≤ 10 nM

C[C@@H]1C[C@H](N)CN(c2ccncc2NCc2ccc(F)c(-c3c(F)cc4ncccc4c3F)n2)C1 [Example 38, 4-[(3S,5R)-3-Amino-5-methylpiperidin-1-yl]-N-{[6-(5,7-difluoroquinolin-6-yl)-5-fluoropyridin-2-yl]methyl}pyridin-3-amine]
IC50 [1]: < 10 nM
IC50 [2]: 100 to 1000 nM
IC50 [3]: ≤ 10 nM

C[C@H]1CN(c2ccncc2NCc2ccc(F)c(-c3c(F)cc(CN4CCOCC4)cc3F)n2)C[C@@H](N)[C@@H]1O [Example 39, (3R,4R,5S)-3-Amino-1-{3-[({6-[2,6-difluoro-4-(morpholin-4-ylmethyl)phenyl]-5-fluoropyridin-2-yl}methyl)amino]pyridin-4-yl}-5-methylpiperidin-4-ol]
IC50 [1]: < 10 nM
IC50 [2]: ≤ 100 nM
IC50 [3]: ≤ 10 nM
